Consider three compounds from paper PMC12461331, “Screening of Medicines for Malaria Venture Open Boxes Identifies Potent SARS-CoV‑2 Papain-like Protease (PL^pro) Inhibitors” (ACS Omega, 2025).

Values joined by “and” are separate entries in the source; they are usually repeats but may differ in a detail not shown here. Identical values can stand only once.

A short description of data set [1]: physchem. As to conditions: 25 °C, kinetic from dmso stock.
For data set [2] the following is noted: human, microsomes.
A short description of data set [3]: in vitro. To be noted: CD1, mouse, microsomes, pH 7.4.
Data set [4] can be described thus: physchem. As to conditions: pH 7.4.
Data set [5] in a line: Plasma stability. As to conditions: female, BALB/c, mouse, plasma, pH 7.4.
Data set [6] is described as follows: Mouse liver microsomal stability assay. As to conditions: CD1, mouse, liver microsomes, pH 7.4. In general terms: Microsomes from liver hold many membrane-bound enzymes, among them those of drug oxidation.
Data set [7] is described as follows: Human liver microsomal stability assay. As to conditions: human, liver microsomes, pH 7.4.
A short description of data set [8]: in vitro. As to conditions: PAMPA. On the technique in general: PAMPA measures passive passage across an artificial lipid membrane.
The conditions of data set [9]: female, BALB/c, mouse, 1 h, 2 μM, pH 7.4.
Data set [10] concerns the target PL^pro (Severe acute respiratory syndrome coronavirus 2, UniProt P0DTD1). As to conditions: 20 μM compound, 5 μM enzyme, average of triplicates with SD.
Data set [11] in a line: in vitro. As to conditions: human, microsomes, pH 7.4.
Data set [12] addresses SARS-CoV-2 PL^pro (Severe acute respiratory syndrome coronavirus 2, UniProt P0DTD1). The format is biochemical.

In general, solubility (kinetic) refers to the concentration staying in solution when a stock, usually in DMSO, is diluted into the medium. What is called microsomal CLint is the rate of metabolic loss divided by the concentration. A high value points to rapid turnover. As usually defined, the chromatographic logD is lipophilicity estimated from chromatographic retention. Higher therefore signals a more lipophilic compound. Usually half-life stands for the time needed for the level to fall by half in the phase considered. Broadly, the Papp is the rate of passage across a membrane or cell layer, normalised by area and donor concentration. Lower therefore signals slow passage.

As for `CC[C@@H](C)N1CCC(C(=O)NCc2ccc(OC)cc2)CC1` (racemic) [Compound 14], the solubility (kinetic) at 24 h in [1] (pH 2, aqueous buffer) is more than 18.4 µg/mL; in data set [1] (pH 7.4, aqueous buffer), more than 18.3 µg/mL. For the same compound, the “metabolic stability (in words)” value in data set [2] is given as “improved stability”. The microsomal CLint at 0.5 μM in [3] was 65.6 µL/min/mg; in data set [11] it was less than 12 µL/min/mg. In addition, the chromatographic logD in [4] is 1.61. In data set [5], this compound displayed a half-life at 2 μM of 3.73 h. Also, the half-life at 0.5 μM in data set [6] came out at 0.705 h; in [7], 5.02 h. This compound returned a Papp at 5 h, 10 μM in [8] of 0.77 ×10⁻⁶ cm/s. In addition, the “plasma stability remaining 60 min” value in data set [9] is on record as 30.29%. The same compound returned a ΔT m in [10] of 1.20 ± 0.06 °C.

In the case of `COc1ccc(CNC(=O)C2CCN([C@@H](C)c3ccccc3)CC2)cc1` [Compound 2], the solubility (kinetic) at 24 h in data set [1] (pH 2, aqueous buffer) is more than 22.1 µg/mL; in [1] (pH 7.4, aqueous buffer) it was more than 22 µg/mL. The “metabolic stability (in words)” value in [2] is listed as “improved stability”. Also, the microsomal CLint at 0.5 μM came to 300 µL/min/mg in data set [3] and 24.4 µL/min/mg in data set [11]. The compound further returned a chromatographic logD in data set [4] of 3. In addition, the half-life at 0.5 μM was 0.154 h in data set [6] and 1.89 h in [7]. Besides, the Papp at 5 h, 10 μM in data set [8] was 1.47 ×10⁻⁶ cm/s. The “plasma stability remaining 60 min” value in [9] was found to be 91.46%. Also, the ΔT m in data set [10] is 1.5 °C and 1.50 ± 0.05 °C.

Consider `NC[C@H]1O[C@H](O[C@H]2[C@H](O)[C@@H](O[C@H]3O[C@H](CO)[C@@H](O)[C@H](N)[C@H]3O)[C@H](N)C[C@@H]2N)[C@H](N)C[C@@H]1O` [Tobramycin, reference compound], for which the “inhibition of SARS-CoV-2 PL^pro” value in [12] was not below 80%.
